In the supplement of paper PMC10307832:

Legend:
Test in all cases: relative viability (nuclei count vs DMSO), 5 days (fraction); higher = more cells survive
Metformin + Linsitinib = compound: CN(C)C(=N)NC(=N)N [Metformin] + C[C@]1(O)C[C@@H](c2nc(-c3ccc4ccc(-c5ccccc5)nc4c3)c3c(N)nccn32)C1 [Linsitinib] (partner 1 µM)
Summary of the method: (§1)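 Relative viability is defined as nuclei in treated wells over nuclei in vehicle wells. Duplicate plates were run and medians reported. Lung cancer cell lines in 1536-well plates were dosed by pin tool one day after seeding, with one drug or with a fixed anchor-drug dose plus five library-drug doses (not always all listed) in √10 steps, and nuclei were counted after 5 days.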

Metformin + Dasatinib = compound: CN(C)C(=N)NC(=N)N [Metformin] + Cc1nc(Nc2ncc(C(=O)Nc3c(C)cccc3Cl)s2)cc(N2CCN(CCO)CC2)n1 [Dasatinib] (partner 0.075 µM)
Summary of the method: as §1

Metformin + Pemetrexed = compound: CN(C)C(=N)NC(=N)N [Metformin] + Nc1nc2[nH]cc(CCc3ccc(C(=O)N[C@@H](CCC(=O)O)C(=O)O)cc3)c2c(=O)[nH]1 [Pemetrexed] (partner 0.2 µM)
Summary of the method: as §1

Apatinib + Lapatinib = compound: N#CC1(c2ccc(NC(=O)c3cccnc3NCc3ccncc3)cc2)CCCC1 [Apatinib] + CS(=O)(=O)CCNCc1ccc(-c2ccc3ncnc(Nc4ccc(OCc5cccc(F)c5)c(Cl)c4)c3c2)o1 [Lapatinib] (partner 2 µM)
Summary of the method: as §1

Cell Line | relative viability (Metformin + Linsitinib; first compound 10 µM) | relative viability (Metformin + Linsitinib; first compound 31.62 µM) | relative viability (Metformin + Linsitinib; first compound 100 µM) | relative viability (Metformin + Linsitinib; first compound 316.23 µM) | relative viability (Metformin + Linsitinib; first compound 1000 µM) | relative viability (Metformin + Dasatinib; first compound 10 µM) | relative viability (Metformin + Dasatinib; first compound 31.62 µM) | relative viability (Metformin + Dasatinib; first compound 100 µM) | relative viability (Metformin + Dasatinib; first compound 316.23 µM) | relative viability (Metformin + Dasatinib; first compound 1000 µM) | relative viability (Metformin + Pemetrexed; first compound 10 µM) | relative viability (Metformin + Pemetrexed; first compound 31.62 µM) | relative viability (Metformin + Pemetrexed; first compound 100 µM) | relative viability (Metformin + Pemetrexed; first compound 316.23 µM) | relative viability (Metformin + Pemetrexed; first compound 1000 µM) | relative viability (Apatinib + Lapatinib; first compound 0.08 µM) | relative viability (Apatinib + Lapatinib; first compound 0.253 µM) | relative viability (Apatinib + Lapatinib; first compound 0.8 µM) | relative viability (Apatinib + Lapatinib; first compound 2.53 µM) | relative viability (Apatinib + Lapatinib; first compound 8 µM)
NCI-H650 | 0.859 | 0.955 | 0.845 | 0.983 | 1.3 | 0.466 | 0.438 | 0.339 | 0.502 | 0.332 | 0.846 | 0.993 | 0.878 | 0.941 | 1.1 | 0.799 | 0.982 | 0.784 | 0.74 | 0.583
NCI-H2126 | 0.633 | 0.735 | 0.687 | 0.703 | 0.721 | 0.548 | 0.557 | 0.556 | 0.372 | 0.337 | 0.648 | 0.658 | 0.672 | 0.579 | 0.71 | 0.757 | 0.768 | 0.762 | 0.711 | 0.78
NCI-H1395 | 0.997 | 1.15 | 0.934 | 1.02 | 0.385 | 0.438 | 0.483 | 0.493 | 0.385 | 0.509 | 1.05 | 1.1 | 0.998 | 0.624 | 0.488 | 0.848 | 1.31 | 1.17 | 0.855 | 0.901
NCI-H1355 | 0.782 | 0.783 | 0.756 | 0.731 | 0.854 | 0.718 | 0.638 | 0.681 | 0.638 | 0.778 | 0.942 | 1.02 | 1.02 | 1 | 0.94 | 1.06 | 0.963 | 0.973 | 0.923 | 0.944
NCI-H1792 | – | 0.742 | 0.803 | 0.632 | 0.664 | – | 1.05 | 0.982 | 0.754 | 0.756 | 0.968 | 0.862 | 0.952 | 0.697 | 0.903 | 0.873 | 0.877 | 0.855 | 0.798 | 0.844
NCI-H596 | 1.11 | 1.18 | 1.32 | 1.08 | 1.25 | 0.622 | 0.67 | 0.757 | 0.696 | 0.655 | 0.582 | 0.563 | 0.546 | 0.498 | 0.539 | 1.16 | 1.1 | 1.02 | 0.976 | 1.18
NCI-H23 | 0.701 | 0.623 | 0.705 | 0.675 | 0.763 | 0.759 | 0.876 | 0.833 | 0.499 | 0.802 | 0.679 | 0.852 | 0.652 | 0.586 | 0.79 | 1.54 | 1.2 | 0.959 | 1.04 | 0.905
HCC-15 | 0.877 | 0.965 | 0.953 | 0.857 | 0.947 | – | 0.625 | 0.581 | 0.556 | 0.584 | 0.233 | 0.21 | 0.207 | 0.228 | 0.22 | 0.928 | 0.859 | 0.808 | 0.742 | 0.827
HCC-44 | 0.712 | 0.679 | 0.695 | 0.597 | 0.654 | – | – | – | – | – | – | 0.593 | 0.593 | 0.531 | 0.603 | 1.04 | 0.993 | 0.991 | 0.945 | 0.941
COR-L23 | 0.821 | 0.828 | 0.9 | 0.77 | 0.843 | 0.496 | 0.436 | 0.413 | 0.393 | 0.121 | 0.196 | 0.186 | 0.209 | 0.195 | 0.203 | 0.919 | 1.16 | 1.05 | 0.792 | 0.722
NCI-H1703 | 1.41 | 0.892 | 0.832 | 0.485 | 0.599 | – | – | – | – | – | – | – | – | – | – | 1.01 | 0.685 | 0.291 | 0.228 | 0.276
NCI-H1650 | – | – | – | – | – | 0.443 | 0.456 | 0.366 | 0.301 | 0.369 | 0.398 | 0.428 | 0.388 | 0.404 | 0.301 | 0.626 | 0.796 | 0.908 | 0.756 | 0.689
LCLC-103H | 1.05 | 1.26 | 1.06 | 1.12 | 1.19 | 0.598 | 0.579 | 0.579 | 0.514 | 0.588 | 0.446 | 0.485 | 0.434 | 0.446 | 0.445 | – | – | – | – | –
NCI-H1299 | 1.03 | 1.04 | 1 | 0.958 | 0.974 | – | – | – | – | – | – | – | – | – | – | 0.99 | 1.01 | 0.981 | 0.938 | 0.773
ChaGo-K-1 | – | – | – | – | – | 0.742 | 0.712 | 0.637 | 0.501 | 0.722 | 0.259 | 0.277 | 0.259 | 0.257 | 0.256 | – | – | – | – | –
NCI-H441 | 0.432 | – | 0.536 | 0.478 | 0.605 | – | 0.577 | 0.609 | 0.385 | 0.544 | – | 0.255 | 0.292 | 0.266 | 0.264 | – | – | – | – | –
ABC-1 | – | 0.675 | 0.971 | 0.307 | 0.325 | 0.414 | 0.73 | 0.659 | 0.316 | 0.31 | – | – | – | – | – | 1.03 | 1.45 | 1.42 | 1.14 | 0.993
NCI-H522 | – | – | – | – | – | 1.07 | 1.15 | 1.18 | 1.02 | 1.07 | 1.15 | 1.21 | 1.25 | 1.12 | 1.46 | – | – | – | – | –
NCI-H1623 | – | – | – | – | – | 0.376 | 0.518 | 0.511 | 0.627 | 0.478 | – | – | – | – | – | – | – | – | – | –
NCI-H2342 | – | – | – | – | – | 0.315 | 0.291 | 0.326 | 0.285 | 0.356 | – | 1.13 | 0.751 | 0.786 | 0.752 | – | – | – | – | –
A549 | 0.647 | 0.789 | 0.85 | 0.631 | 0.711 | – | – | – | – | – | – | – | – | – | – | 1.14 | 1.05 | 1.04 | 0.944 | 0.842
EBC-1 | 0.796 | 0.997 | 0.815 | 0.698 | 0.884 | – | – | – | – | – | – | – | – | – | – | 0.194 | 0.197 | 0.235 | 0.231 | 0.237
